Key:
tendon fibroblasts = assay: Tendon fibroblasts seeded on axially-constrained hydrogel treated with TGF-β1; assay type: cell-based; settings: fibroblasts differentiate into myofibroblasts
Text: Subsequently, activation of α-SMA+ve myofibroblasts is evident even after 28 dpi.

16HBE cells = assay: Real-time photonic ring sensor detection of cytokine secretion from 16HBE cells exposed to LPS; assay type: cell-based, human; settings: LPS 1 μg/mL in DMEM, 30 μL/min for 3 hours, 37° C.
Description: 16HBE cells were seeded on the membrane of the exemplar device and allowed to adhere to the membrane for 3 hours. The device was then connected to a peristaltic pump, which contacted the cells with Dulbecco's Modified Eagles' Medium (DMEM) at a low flow rate (˜30 μL/min) overnight. The next day, the device was set on a temperature-controlled stage (37° C.) and DMEM doped with LPS (at 1 μg/mL) was flowed over the cells (through the top channel) at 30 μL/min for 3 hours. Spectra were measured continuously to observe any shifts in resonance of the photonic ring resonators over time.
FIG. 1F is a graph with a Y axis showing the wavelength of light resonant in the test and the control ring sensors, with longer wavelengths towards the top, and an X axis showing time in seconds following exposure of the cells to LPS. […]
FIG. 1G presents graphs showing the results of subtracting the shifts in the […] (indicating non-specific binding) from that of the […] for two cytokines, IL-6 (left graph) and IL-1B (right-hand graph). […] For the reader's attention, it is noted that the scale of the two graphs is different, with much smaller quantities of cytokine being detected in the right-hand graph. […]

[1] = measured plasma drug concentration or target trough, provided by pharmaceutical makers as general guidelines; cited from earlier work
[2] = estimated in rodents in the literature; cited from earlier work

Compound: TGF-β1: cytokine used to induce myofibroblast differentiation in tendon fibroblasts
- α-SMA gene (Acta) expression and hydrogel lateral contraction (tendon fibroblasts): dose-dependent increase

Compound: Lipopolysaccharide [LPS]
- Time at which secretion of cytokines (IL-6, IL-1β) begins after LPS exposure (16HBE cells): about 70 minutes

Compound: CO[C@H]1C[C@@H]2CC[C@@H](C)[C@@](O)(O2)C(=O)C(=O)N2CCCC[C@H]2C(=O)O[C@H]([C@H](C)C[C@@H]2CC[C@@H](O)[C@H](OC)C2)CC(=O)[C@H](C)/C=C(\C)[C@@H](O)[C@@H](OC)C(=O)[C@H](C)C[C@H](C)/C=C/C=C/C=C/1C [Sirolimus]
- Target whole blood trough concentrations (plasma concentrations) [1]: 16 to 24 ng/mL

Compound: CO[C@H]1C[C@@H]2CC[C@@H](C)[C@@](O)(O2)C(=O)C(=O)N2CCCC[C@H]2C(=O)O[C@H]([C@H](C)C[C@@H]2CC[C@@H](OCCO)[C@H](OC)C2)CC(=O)[C@H](C)/C=C(\C)[C@@H](O)[C@@H](OC)C(=O)[C@H](C)C[C@H](C)/C=C/C=C/C=C/1C [Everolimus]
- ED50 [2]: ~0.1 to 2.38 mg/kg
- Target whole blood trough concentrations (plasma concentrations) [1]: 5 to 15 ng/mL
